According to ChEMBL document CHEMBL3885861, “Open TG-GATES”:

Organism: Rattus norvegicus
Assay: Open TG-GATES - Regimen: Single
Format: toxicity, organism-based, Sprague-Dawley
Design: regimen Single, gender Male, age 6 weeks
Details: in vivo, po, 2000 mg/kg, route gavage, dose level High; for APTT / Bas / Eos / Fbg / Hb / Ht / Lym / MCHC / MCV / Mono / Neu / PT / Plat / RBC / Ret / WBC: tissue Blood; for KIDNEY_L / KIDNEY_R / KIDNEY_TOTAL: tissue Kidney; for LIVER: tissue Liver; for ALP / ALT / AST / BUN / CRE / DBIL / GLC / IP / K / LDH / Na / PL / RALB / TBIL / TC / TG / TP / gamma-GTP: tissue Plasma

`C#C[C@]1(O)CC[C@H]2[C@@H]3CCC4=Cc5oncc5C[C@]4(C)[C@H]3CC[C@@]21C` [DANAZOL] was tested, and the TERMINAL_BW (3 h) was 217 g, the APTT (3 h) was 22.7 s and the Bas (3 h) was 0%. For the same compound, the Eos (3 h) was 1%, the Fbg (3 h) was 312.2 mg/dL and the Hb (3 h) was 13.3 g/dL. The Ht (3 h) was 40.5%, the Lym (3 h) was 77.2% and the MCHC (3 h) was 33%. For the same compound, the MCV (3 h) was 62.8 fL, the Mono (3 h) was 3.2% and the Neu (3 h) was 18.2%. For the same compound, the PT (3 h) was 15.5 s, the Plat (3 h) was 120.2 x10_4/uL and the RBC (3 h) was 644 x10_4/ul. The Ret (3 h) was 7.3%, the WBC (3 h) was 73.3 x10_2/uL and the KIDNEY_L (3 h) was 1 g. It also gave a KIDNEY_R (3 h) of 1 g, a KIDNEY_TOTAL (3 h) of 2 g and an LIVER (3 h) of 9.7 g. It also gave an ALP (3 h) of 1466 IU/L, an ALT (3 h) of 45 IU/L and an AST (3 h) of 78 IU/L. For the same compound, the BUN (3 h) was 13.6 mg/dL, the CRE (3 h) was 0.1 mg/dL and the DBIL (3 h) was 0 mg/dL. It also gave a GLC (3 h) of 178.2 mg/dL, an IP (3 h) of 8.5 mg/dL and a K (3 h) of 4.4 meq/L. It also gave an LDH (3 h) of 162 IU/L, a Na (3 h) of 141 meq/L and a PL (3 h) of 138.4 mg/dL. For the same compound, the RALB (3 h) was 3.1 g/dL, the TBIL (3 h) was 0.02 mg/dL and the TC (3 h) was 68.2 mg/dL. It also gave a TG (3 h) of 99.2 mg/dL, a TP (3 h) of 5.4 g/dL and a gamma-GTP (3 h) of 1.8 IU/L. For the same compound, the TERMINAL_BW (6 h) was 217.1 g, the APTT (6 h) was 23.2 s and the Bas (6 h) was 0%. The Eos (6 h) was 1%, the Fbg (6 h) was 282.6 mg/dL and the Hb (6 h) was 12.6 g/dL. For the same compound, the Ht (6 h) was 39%, the Lym (6 h) was 75.4% and the MCHC (6 h) was 32.3%. For the same compound, the MCV (6 h) was 63.5 fL, the Mono (6 h) was 2.8% and the Neu (6 h) was 20.6%. The PT (6 h) was 16.5 s, the Plat (6 h) was 113.2 x10_4/uL and the RBC (6 h) was 613 x10_4/ul. It also gave a Ret (6 h) of 8.1%, a WBC (6 h) of 86.2 x10_2/uL and a KIDNEY_L (6 h) of 1 g. It also gave a KIDNEY_R (6 h) of 1 g, a KIDNEY_TOTAL (6 h) of 2 g and an LIVER (6 h) of 9.6 g. The ALP (6 h) was 1348.6 IU/L, the ALT (6 h) was 34.8 IU/L and the AST (6 h) was 69 IU/L. For the same compound, the BUN (6 h) was 12.2 mg/dL, the CRE (6 h) was 0.1 mg/dL and the DBIL (6 h) was 0 mg/dL. For the same compound, the GLC (6 h) was 178 mg/dL, the IP (6 h) was 8.5 mg/dL and the K (6 h) was 4.5 meq/L. It also gave an LDH (6 h) of 159.6 IU/L, a Na (6 h) of 140.4 meq/L and a PL (6 h) of 122.4 mg/dL. The RALB (6 h) was 2.9 g/dL, the TBIL (6 h) was 0.028 mg/dL and the TC (6 h) was 57.6 mg/dL. For the same compound, the TG (6 h) was 71.6 mg/dL, the TP (6 h) was 5.3 g/dL and the gamma-GTP (6 h) was 1.8 IU/L. The TERMINAL_BW (9 h) was 216.8 g, the APTT (9 h) was 23.7 s and the Bas (9 h) was 0%. For the same compound, the Eos (9 h) was 0.8%, the Fbg (9 h) was 276.2 mg/dL and the Hb (9 h) was 12.7 g/dL. It also gave a Ht (9 h) of 39.3%, a Lym (9 h) of 74.6% and an MCHC (9 h) of 32.3%. It also gave an MCV (9 h) of 63.9 fL, a Mono (9 h) of 2.8% and a Neu (9 h) of 20.8%. It also gave a PT (9 h) of 16.9 s, a Plat (9 h) of 110.6 x10_4/uL and an RBC (9 h) of 615.4 x10_4/ul. For the same compound, the Ret (9 h) was 7.2%, the WBC (9 h) was 77.3 x10_2/uL and the KIDNEY_L (9 h) was 1 g. For the same compound, the KIDNEY_R (9 h) was 1 g, the KIDNEY_TOTAL (9 h) was 2 g and the LIVER (9 h) was 9.1 g. The ALP (9 h) was 1416.2 IU/L, the ALT (9 h) was 31.6 IU/L and the AST (9 h) was 73.8 IU/L. For the same compound, the BUN (9 h) was 11.6 mg/dL, the CRE (9 h) was 0.2 mg/dL and the DBIL (9 h) was 0.004 mg/dL. The GLC (9 h) was 180.8 mg/dL, the IP (9 h) was 9.2 mg/dL and the K (9 h) was 4.2 meq/L. For the same compound, the LDH (9 h) was 128 IU/L, the Na (9 h) was 141.2 meq/L and the PL (9 h) was 110.8 mg/dL. It also gave an RALB (9 h) of 2.9 g/dL, a TBIL (9 h) of 0.032 mg/dL and a TC (9 h) of 47.2 mg/dL. It also gave a TG (9 h) of 99.4 mg/dL, a TP (9 h) of 5.2 g/dL and a gamma-GTP (9 h) of 1.4 IU/L. For the same compound, the TERMINAL_BW (24 h) was 217.9 g, the APTT (24 h) was 24.3 s and the Bas (24 h) was 0%. It also gave an Eos (24 h) of 1%, a Fbg (24 h) of 286.4 mg/dL and a Hb (24 h) of 13.3 g/dL. The Ht (24 h) was 39.8%, the Lym (24 h) was 74.8% and the MCHC (24 h) was 33.4%. For the same compound, the MCV (24 h) was 62.7 fL, the Mono (24 h) was 2.4% and the Neu (24 h) was 21.4%. The PT (24 h) was 18.6 s, the Plat (24 h) was 127.2 x10_4/uL and the RBC (24 h) was 635.8 x10_4/ul. It also gave a Ret (24 h) of 7.2%, a WBC (24 h) of 84.4 x10_2/uL and a KIDNEY_L (24 h) of 1 g. It also gave a KIDNEY_R (24 h) of 1 g, a KIDNEY_TOTAL (24 h) of 2 g and an LIVER (24 h) of 10.5 g. It also gave an ALP (24 h) of 1879.4 IU/L, an ALT (24 h) of 44.4 IU/L and an AST (24 h) of 76.8 IU/L. It also gave a BUN (24 h) of 12.2 mg/dL, a CRE (24 h) of 0.1 mg/dL and a DBIL (24 h) of 0 mg/dL. It also gave a GLC (24 h) of 186 mg/dL, an IP (24 h) of 6.9 mg/dL and a K (24 h) of 4.3 meq/L. For the same compound, the LDH (24 h) was 219.6 IU/L, the Na (24 h) was 141.6 meq/L and the PL (24 h) was 121.2 mg/dL. The RALB (24 h) was 3.1 g/dL, the TBIL (24 h) was 0 mg/dL and the TC (24 h) was 44.6 mg/dL. For the same compound, the TG (24 h) was 266.6 mg/dL, the TP (24 h) was 5.6 g/dL and the gamma-GTP (24 h) was 1.2 IU/L.
